Experimental data as given in US9238039B2, “Pyrazolo[1,5-A]pyrimidines for antiviral treatment” (Gilead Sciences, Inc., priority 2010, dated 2016).

Test system: RSV strain A2
Assay: RSV antiviral cytoprotection assay in Hep2 cells (96-well and 384-well format, Cell TiterGlo read-out)
Assay type: cell-based, Respiratory Syncytial Virus (RSV)
Settings: human respiratory syncytial virus; for inhibition at 0.5 µM: HEp-2, 0.5 uM, RSV-induced cytopathic effect in Hep2 cells, calculated from fitted dose response curve, normalized to 0% and 100%; for EC50: HEp-2, RSV-induced cytopathic effects, Hep2 cells, class symbols

Row | EC50 | Compound | inhibition at 0.5 µM
1 | 0.1 to 100 nM | Cc1cn2nc([C@@H]3CCCCN3C(=O)c3ccccc3F)cc2nc1N1CC[C@H](N)C1 [Compound 277] | 98%
2 | 0.1 to 100 nM | Cc1cn2nc([C@@H]3CCCCN3C(=O)c3cc(F)ccc3Cl)cc2nc1N1CC[C@H](N)C1 [Compound 347] | 100%
3 | 0.1 to 100 nM | Cc1cc(Cl)cc(C(=O)N2CCCC[C@H]2c2cc3[nH]c(C)c(C)c(=O)n3n2)c1NS(C)(=O)=O [Compound 120] | 100%
4 | 0.1 to 100 nM | Cc1cn2nc([C@@H]3CCCCN3C(=O)c3cc(Cl)ccc3NC(=O)C3CC3)cc2nc1N1CC[C@H](N)C1 [Compound 219] | 100%
5 | 0.1 to 100 nM | Cc1cn2nc([C@@H]3CCCCN3C(=O)c3cc(Cl)ccc3NS(C)(=O)=O)cc2nc1N1CCC(C)(C#N)C1 (stereo partly shown) [Compound 205] | 91%
6 | 0.1 to 100 nM | Cc1cn2nc([C@@H]3CCCCN3C(=O)c3cc(Cl)ncc3Cl)cc2nc1N1CC[C@H](N)C1 [Compound 395] | 100%
7 | 101 to 1000 nM | Cc1cn2nc([C@@H]3CCCCN3C(=O)c3cccc(-c4cccnc4)c3)cc2nc1N1CC[C@H](N)C1 [Compound 411] | 95%
8 | 0.1 to 100 nM | Cc1ccc(NS(C)(=O)=O)c(C(=O)N2CCC(C)CC2c2cc3[nH]c(C)c(C)c(=O)n3n2)c1 (stereo not shown) [Compound 89] | 100%
9 | 0.1 to 100 nM | Cc1cc(C(=O)N2CCCC[C@H]2c2cc3nc(N4CC[C@H](N)C4)c(C)cn3n2)on1 [Compound 266] | 100%
10 | 0.1 to 100 nM | Cc1cn2nc(C3CCCCCN3C(=O)c3cc(Cl)ccc3NS(C)(=O)=O)cc2nc1N1CC(O)C1 (stereo not shown) [Compound 174] | 100%
11 | 0.1 to 100 nM | COc1ccc(C(=O)N2CCCC[C@H]2c2cc3nc(N4CC[C@H](N)C4)c(C)cn3n2)cc1Cl [Compound 375] | 99%
12 | 0.1 to 100 nM | CN(C)CCN(C)c1cc(N2CC(O)C2)nc2cc([C@@H]3CCCCN3C(=O)c3cc(Cl)ccc3NS(C)(=O)=O)nn12 [Compound 55] | 100%
13 | 0.1 to 100 nM | Cc1cn2nc([C@@H]3CCCCN3C(=O)c3cn4ccsc4n3)cc2nc1N1CC[C@H](N)C1 [Compound 327] | 100%
14 | 101 to 1000 nM | Cc1cn2nc([C@@H]3CCCCN3C(=O)c3cnn(C)c3C)cc2nc1N1CC[C@H](N)C1 [Compound 279] | 63%
15 | 0.1 to 100 nM | CS(=O)(=O)Nc1ccc(Cl)cc1C(=O)N1CCCC[C@H]1c1cc2nc(NCCO)cc(N3CCOCC3)n2n1 [Compound 247] | 94%
16 | 0.1 to 100 nM | Cc1cn2nc([C@@H]3CCCCN3C(=O)c3cc(C(C)C)nn3C)cc2nc1N1CC[C@H](N)C1 [Compound 328] | 99%
17 | 0.1 to 100 nM | CC(=O)Nc1ccc(Cl)cc1C(=O)N1CCCC[C@H]1c1cc2nc(N3CC(O)C3)c(C)cn2n1 [Compound 224] | 100%
18 | 101 to 1000 nM | Cc1cn2nc([C@@H]3CCCCN3C(=O)c3cc(-c4ccco4)n[nH]3)cc2nc1N1CC[C@H](N)C1 [Compound 360] | 66%
19 | 0.1 to 100 nM | Cc1cn2nc([C@@H]3CCCCN3C(=O)c3ccc4[nH]c(C)c(C)c4c3)cc2nc1N1CC[C@H](N)C1 [Compound 386] | 97%
20 | 0.1 to 100 nM | Cc1cc(N2CC(F)C2)nc2cc([C@@H]3CCCCN3C(=O)c3cc(Cl)ccc3NS(C)(=O)=O)nn12 [Compound 47] | 100%
21 | 0.1 to 100 nM | Cc1cn2nc([C@@H]3CCCCN3C(=O)c3csc4c3CCCC4)cc2nc1N1CC[C@H](N)C1 [Compound 369] | 91%
22 | 0.1 to 100 nM | Cc1cn2nc([C@@H]3CCCCN3C(=O)c3ccc(C4CC4)cc3)cc2nc1N1CC[C@H](N)C1 [Compound 313] | 100%
23 | 0.1 to 100 nM | Cc1cn2nc([C@@H]3CCCCN3C(=O)c3cc4ccccn4n3)cc2nc1N1CC[C@H](N)C1 [Compound 312] | 100%
24 | 0.1 to 100 nM | Cc1cn2nc([C@@H]3CCCCN3C(=O)c3c(F)ccc(F)c3F)cc2nc1N1CC[C@H](N)C1 [Compound 353] | 100%
25 | 0.1 to 100 nM | Cc1ccc(NS(C)(=O)=O)c(C(=O)N2CCCC[C@H]2c2cc3nc(C)c(C)c(N4CCCC4)n3n2)c1 [Compound 98] | 98%
26 | 0.1 to 100 nM | Cc1cn2nc([C@@H]3CCCCN3C(=O)c3ccc4c(c3)OCCO4)cc2nc1N1CC[C@H](N)C1 [Compound 364] | 99%
27 | 0.1 to 100 nM | CS(=O)(=O)Nc1ccc(Cl)cc1C(=O)N1CCCC[C@H]1c1cc2nc(N3CC(O)C3)cc(N3CCOC3)n2n1 [Compound 77] | 100%
28 | 0.1 to 100 nM | Cc1cn2nc([C@@H]3CCCCN3C(=O)c3cnc(Cl)cn3)cc2nc1N1CC[C@H](N)C1 [Compound 309] | 100%
29 | 0.1 to 100 nM | Cc1cc(N2CCCC2)nc2cc([C@@H]3CCCCN3C(=O)c3cc(Cl)ccc3NS(C)(=O)=O)nn12 [Compound 46] | 100%
30 | 0.1 to 100 nM | Cc1cn2nc([C@@H]3CCCCN3C(=O)c3cc(Cl)ccc3NS(C)(=O)=O)cc2nc1N1CC[C@@H](N)C1 [Compound 232] | 100%

Row | Compound | EC50 | inhibition at 0.5 µM
31 | Cc1ccc(NS(C)(=O)=O)c(C(=O)N2Cc3ccccc3C[C@H]2c2cc3[nH]c(C)c(C)c(=O)n3n2)c1 [Compound 33] | 0.1 to 100 nM | 98%
32 | Cc1ccc(NS(C)(=O)=O)c(C(=O)N2CCCC[C@H]2c2cc3nc(C4CC4)cc(N4CCC4)n3n2)c1 [Compound 65] | 0.1 to 100 nM | 100%
33 | CS(=O)(=O)Nc1ccc(Cl)cc1C(=O)N1CCCC[C@H]1c1cc2nc(C3CC3)cc(N3CCC3)n2n1 [Compound 64] | 0.1 to 100 nM | 98%
34 | CS(=O)(=O)Nc1ccc(Cl)cc1C(=O)N1CCCC[C@H]1c1cc2nc(N3CCC3)cc(N3CCCN3)n2n1 [Compound 145] | 0.1 to 100 nM | 99%
35 | CS(=O)(=O)Nc1ccc(Cl)cc1C(=O)N1CCCC[C@H]1c1cc2nc(N3CCC3)cc(N3CC(N)C(C(=O)N4CCC4)C3)n2n1 (stereo partly shown) [Compound 164] | 0.1 to 100 nM | 100%
36 | CS(=O)(=O)Nc1ccc(Cl)cc1C(=O)N1CCCC[C@H]1c1cc2nc(N3CCC3)cc(N3CCC(N)CC3)n2n1 [Compound 233] | 0.1 to 100 nM | 100%
37 | CS(=O)(=O)Nc1ccc(Cl)cc1C(=O)N1CCCC[C@H]1c1cc2nc(N3CCC3)cc(N3CCCNCC3)n2n1 [Compound 156] | 0.1 to 100 nM | 100%
38 | Cc1cn2nc([C@@H]3CCCCN3C(=O)c3cc(Cl)ccc3NS(C)(=O)=O)cc2nc1N1C[C@@H](N)C2(CC2)C1 [Compound 201] | 101 to 1000 nM | 64%
39 | CS(=O)(=O)Nc1ccc(Cl)cc1C(=O)N1CCCC[C@H]1c1cc2nc(N3CCC3)cc(N3CCN[C@@H](C(F)F)C3)n2n1 [Compound 253] | 0.1 to 100 nM | 88%
40 | Cc1cn2nc([C@@H]3CCCCN3C(=O)c3cc(Cl)ccc3NS(C)(=O)=O)cc2nc1N1CC(OC(=O)[C@@H](N)C(C)C)C1 [Compound 187] | 0.1 to 100 nM | 100%
41 | CS(=O)(=O)Nc1ccc(Cl)cc1C(=O)N1CCCC[C@H]1c1cc2nc(N3CCC3)cc(N3CCNCC3)n2n1 [Compound 45] | 0.1 to 100 nM | 100%
